# Assay results from patent publication EP4520824A1, “DEO[…] GENERATES FL[…] USES THEREOF” (Ústav organické chemie a biochemie Akademie ved Ceske …, priority 2023, dated 2025).
# Test system: chromogenic deoxyribozyme, optimized variant (Chro 4, SEQ ID NO: 39)
# Test: Self-phosphorylation kinetics of chromogenic deoxyribozyme with 4-NPP (ligation assay)
# Format: biochemical
# Conditions: self-phosphorylation with 4-NPP as substrate; 200 mM KCl, 1 mM ZnCl2, 50 mM HEPES pH 7.4
compound,measurement,value
"O=[N+]([O-])c1ccc(OP(=O)(O)O)cc1 [4-NPP, 4-nitrophenyl phosphate]",catalytic efficiency,~10^3 M^-1 min^-1
